Laboratory results reported in patent US10543189B2, “2-acetylnaphtho[2,3-b]furan -4,9-dione for use on treating cancer” (Boston Biomedical, Inc., priority 2013, dated 2020).

Assay: Phase 1 extension study of higher strength capsule (DP2A): adverse events
Type: in vivo
Details: AE possibly related to BBI608
Excerpt: However, with the higher strength capsules, we observed worsening gastrointestinal adverse effects including nausea, vomiting, and diarrhea in patients.
Additional studies were run using an oral formulation of the Compound of the Invention, specifically a higher strength capsule formulation (DP2A). As described herein, the Compound of the Invention blocks cancer stem cell (CSC) self-renewal and induces cell death in CSC as well as non-stem cancer cells by inhibiting Stat3, β-catenin, and Nanog pathways, and has shown potent anti-tumor and anti-metastatic activities pre-clinically. […] The studies described herein were designed as a phase 1 extension study to evaluate a formulation designed for pivotal trials to determine pharmacokinetics (PK) in patients with advanced cancer.
On Day 1, patients received a single 500 mg dose of an oral administration formulation of the Compound of the Invention (DP1). On Day 4 and Day 8, a higher strength capsule designed for pivotal trials (DP2A) was given with fasting then fed conditions. DP2A was then administered daily until disease progression or unacceptable toxicity. Endpoints were safety, PK and preliminary anticancer activity.

CC(=O)c1cc2c(o1)C(=O)c1ccccc1C2=O [Compound 1, 2-acetylnaphtho[2,3-b]furan-4,9-dione]
hypophosphatemia, Grade 3, # Subjects (q 4 h dosing (N = 17)): 1 | hypophosphatemia, Grade 3, % (q 4 h dosing (N = 17)): 5.9% | Abdominal cramps/pain, Grade 1 or 2, # Subjects (q 12 h dosing (N = 11)): 5 | Abdominal cramps/pain, Grade 1 or 2, % (q 12 h dosing (N = 11)): 45.5% | Abdominal cramps/pain, Grade 3, # Subjects (q 12 h dosing (N = 11)): 0 | Abdominal cramps/pain, Grade 3, % (q 12 h dosing (N = 11)): 0.0% | Anorexia, Grade 1 or 2, # Subjects (q 12 h dosing (N = 11)): 1 | Anorexia, Grade 1 or 2, % (q 12 h dosing (N = 11)): 9.1% | Anorexia, Grade 3, # Subjects (q 12 h dosing (N = 11)): 0 | Anorexia, Grade 3, % (q 12 h dosing (N = 11)): 0.0% | Bloated abdomen, Grade 1 or 2, # Subjects (q 12 h dosing (N = 11)): 0 | Bloated abdomen, Grade 1 or 2, % (q 12 h dosing (N = 11)): 0.0% | Bloated abdomen, Grade 3, # Subjects (q 12 h dosing (N = 11)): 0 | Bloated abdomen, Grade 3, % (q 12 h dosing (N = 11)): 0.0% | Dehydration, Grade 1 or 2, # Subjects (q 12 h dosing (N = 11)): 0 | Dehydration, Grade 1 or 2, % (q 12 h dosing (N = 11)): 0.0% | Dehydration, Grade 3, # Subjects (q 12 h dosing (N = 11)): 0 | Dehydration, Grade 3, % (q 12 h dosing (N = 11)): 0.0% | Depression, Grade 1 or 2, # Subjects (q 12 h dosing (N = 11)): 1 | Depression, Grade 1 or 2, % (q 12 h dosing (N = 11)): 9.1% | Depression, Grade 3, # Subjects (q 12 h dosing (N = 11)): 0 | Depression, Grade 3, % (q 12 h dosing (N = 11)): 0.0% | Diarrhea, Grade 1 or 2, # Subjects (q 12 h dosing (N = 11)): 7 | Diarrhea, Grade 1 or 2, % (q 12 h dosing (N = 11)): 63.6% | Diarrhea, Grade 3, # Subjects (q 12 h dosing (N = 11)): 0 | Diarrhea, Grade 3, % (q 12 h dosing (N = 11)): 0.0% | Dysgusia, Grade 1 or 2, # Subjects (q 12 h dosing (N = 11)): 0 | Dysgusia, Grade 1 or 2, % (q 12 h dosing (N = 11)): 0.0% | Dysgusia, Grade 3, # Subjects (q 12 h dosing (N = 11)): 0 | Dysgusia, Grade 3, % (q 12 h dosing (N = 11)): 0.0% | Fatigue/weakness, Grade 1 or 2, # Subjects (q 12 h dosing (N = 11)): 4 | Fatigue/weakness, Grade 1 or 2, % (q 12 h dosing (N = 11)): 36.4% | Fatigue/weakness, Grade 3, # Subjects (q 12 h dosing (N = 11)): 1 | Fatigue/weakness, Grade 3, % (q 12 h dosing (N = 11)): 9.1% | Flatulence, Grade 1 or 2, # Subjects (q 12 h dosing (N = 11)): 2 | Flatulence, Grade 1 or 2, % (q 12 h dosing (N = 11)): 18.2% | Flatulence, Grade 3, # Subjects (q 12 h dosing (N = 11)): 0 | Flatulence, Grade 3, % (q 12 h dosing (N = 11)): 0.0% | Nausea, Grade 1 or 2, # Subjects (q 12 h dosing (N = 11)): 2 | Nausea, Grade 1 or 2, % (q 12 h dosing (N = 11)): 18.2% | Nausea, Grade 3, # Subjects (q 12 h dosing (N = 11)): 0 | Nausea, Grade 3, % (q 12 h dosing (N = 11)): 0.0% | Rectal/Anal Burning, Grade 1 or 2, # Subjects (q 12 h dosing (N = 11)): 1 | Rectal/Anal Burning, Grade 1 or 2, % (q 12 h dosing (N = 11)): 9.1% | Rectal/Anal Burning, Grade 3, # Subjects (q 12 h dosing (N = 11)): 0 | Rectal/Anal Burning, Grade 3, % (q 12 h dosing (N = 11)): 0.0% | Reflux (also heartburn), Grade 1 or 2, # Subjects (q 12 h dosing (N = 11)): 0 | Reflux (also heartburn), Grade 1 or 2, % (q 12 h dosing (N = 11)): 0.0% | Reflux (also heartburn), Grade 3, # Subjects (q 12 h dosing (N = 11)): 0 | Reflux (also heartburn), Grade 3, % (q 12 h dosing (N = 11)): 0.0% | Urine Color Change, Grade 1 or 2, # Subjects (q 12 h dosing (N = 11)): 0 | Urine Color Change, Grade 1 or 2, % (q 12 h dosing (N = 11)): 0.0% | Urine Color Change, Grade 3, # Subjects (q 12 h dosing (N = 11)): 0 | Urine Color Change, Grade 3, % (q 12 h dosing (N = 11)): 0.0% | Vomiting, Grade 1 or 2, # Subjects (q 12 h dosing (N = 11)): 1 | Vomiting, Grade 1 or 2, % (q 12 h dosing (N = 11)): 9.1% | Vomiting, Grade 3, # Subjects (q 12 h dosing (N = 11)): 0 | Vomiting, Grade 3, % (q 12 h dosing (N = 11)): 0.0% | Weight loss, Grade 1 or 2, # Subjects (q 12 h dosing (N = 11)): 0 | Weight loss, Grade 1 or 2, % (q 12 h dosing (N = 11)): 0.0% | Weight loss, Grade 3, # Subjects (q 12 h dosing (N = 11)): 0 | Weight loss, Grade 3, % (q 12 h dosing (N = 11)): 0.0% | Xerostomia, Grade 1 or 2, # Subjects (q 12 h dosing (N = 11)): 2 | Xerostomia, Grade 1 or 2, % (q 12 h dosing (N = 11)): 18.2% | Xerostomia, Grade 3, # Subjects (q 12 h dosing (N = 11)): 0 | Xerostomia, Grade 3, % (q 12 h dosing (N = 11)): 0.0% | hypophosphatemia, Grade 1 or 2, # Subjects (q 12 h dosing (N = 11)): 0 | hypophosphatemia, Grade 1 or 2, % (q 12 h dosing (N = 11)): 0.0% | hypophosphatemia, Grade 3, # Subjects (q 12 h dosing (N = 11)): 0 | hypophosphatemia, Grade 3, % (q 12 h dosing (N = 11)): 0.0%
